According to US11733243B2, “Use of acamprosate to modulate ERK1/2 activation in animal models for FXS and ASD and individuals diagnosed with FXS and ASD” (Indiana University Research and Technology Corporation, priority 2013, dated 2023):
Several values for one entry are separate records, joined by “and”; a condition that tells them apart may be missing. Equal entries are not always repeated.

Experiments:
[1] = test system: patients diagnosed with FXS; test: 10-week open-label trial of acamprosate in youth with FXS: behavioral outcome measures; format: in vivo, human; parameters: key to mean CGI-I at endpoint: CGI-I score: 1 = very much improved, 2 = much improved; conditions: for Aberrant Behavior Checklist-Social Avoidance (ABC-SA), End point (mean ± SD): baseline 3.3 ± 2.6; for Clinical Global Impressions-Severity (CGI-S), End point (mean ± SD): baseline 4.25 ± 0.45; for Clinical Global Impressions-Severity (CGI-S), End point (mean ± SD) / ADHD Rating Scale 4th Edition (ADHD-RS), End point (mean ± SD): p<0.0001; for Aberrant Behavior Checklist-Social Withdrawal (ABC-SW), End point (mean ± SD): baseline 8.8 ± 5.8, p=0.04 (Table 5: 7.33 ± 5.2, p=0.014); for Aberrant Behavior Checklist-Hyperactivity (ABC-H), End point (mean ± SD): baseline 16.8 ± 9.1, p=0.009; for ADHD Rating Scale 4th Edition (ADHD-RS), End point (mean ± SD): baseline 23.6 ± 10.6; for Vineland Adaptive Behavior Scale (VABS) Communication Domain, End point (mean ± SD): baseline 63.4 ± 10.1, p=0.03; for VABS Expressive Communication Subdomain, End point (mean ± SD): baseline 69.8 ± 23.0; for Social Responsiveness Scale total score (SRS), End point (mean ± SD): baseline 91.3 ± 27.4, p=0.005
Excerpt: The Institutional Review Board (IRB) at an academic medical center approved this study. Thirteen outpatient males and females aged 5 to 17 years with body weight≥15 kg were recruited for this study. Written informed consent was obtained from each participant's legal guardian (parent for all children in this report), and subjects provided assent when able. Diagnosis of FXS was confirmed by Southern Blot and PCR results consistent with a greater than 200 CGG repeat expansion in the fmr1 gene with at least partial gene methylation. Subjects had to be free of other significant medical conditions. The concomitant use of psychotropic drugs that are not thought to impact glutamate neurotransmission were allowed so long as the patients experienced stable dosing at least 4 weeks prior to baseline. Subjects were required to have a mental age of greater than 18 months as determined by the Stanford-Binet 5th Edition. Additional inclusion criteria included a CGI-S (Guy 1976) score of at least 4 (“Moderately Ill”). Subjects with a Diagnostic and Statistical Manual of Mental Disorders, 4th Edition, Text Revision (DSM-IV-TR) diagnosis of a psychotic disorder, bipolar disorder, or substance use disorder were excluded from the study. Additionally, subjects with a positive urine pregnancy test, creatinine clearance of <30, active seizure disorder, or other significant medical condition were excluded.
A 10-week, prospective, open-label study design was chosen to gather pilot data for potential future larger-scale, double-blind, placebo-controlled studies in this population.
All subjects underwent a screening and baseline visit followed by follow-up visits every 2 weeks during the 10-week open-label trial period. At the end of weeks 1, 3, and 5 the investigators called the parent to assess drug tolerability and to make dose adjustments as indicated. All subjects received 333 mg/day of acamprosate during the first week of the study. The investigators then increased the dosage to a maximum of 1,998 mg/day (weight>50 kg) or 1,332 mg/day (weight<50 kg) over the first six weeks of the study, if optimal clinical response (CGI-I equal to 1 “very much improved”) had not occurred and intolerable adverse effects had not emerged. The dose maintenance phase lasted 4 weeks at the optimal dosage.
The CGI-S assessment was administered at screen and at baseline as part of the eligibility criteria described above. In this study, the rater scored the CGI-S in regard to severity of symptoms commonly noted in FXS including, but not limited to, inattention/hyperactivity, social impairment, communication impairment, repetitive behavior, irritability, and anxiety. The CGI-S is rated on a scale from 1 to 7 (1=normal, not ill at all; 2=borderline ill; 3=mildly ill; 4=moderately ill; 5=markedly ill; 6=severely ill; 7=among the most extremely ill patients with FXS). The Autism Diagnostic Observation Schedule (ADOS) (Lord, Rutter et al. 1989) was administered at baseline to characterize potential concomitant ASD diagnosis.
The primary outcome measure was the CGI-I. The CGI-I is a scale designed to assess global change from baseline. […] Treatment response was defined by a CGI-I score of 1 “very much improved” or 2 “much improved.” In this study, the CGI-I was utilized as a general global primary outcome measure given the uncertainty as to what specific symptoms/behaviors associated with FXS may be expected to improve or worsen with use of acamprosate. The CGI-I was administered at all visits after baseline.
Secondary outcome measures included all subscales of the ABC (Irritability, Social Withdrawal, Stereotypy, Hyperactivity, and Inappropriate Speech). The ABC is an informant-rated (primary caregiver) measure with confirmed reliability and validity with regard to factor structure, distribution of scores, and sensitivity to change in persons with developmental disability (Aman, Singh et al. 1985). […]

[2] = test system: glutamate or GABA receptors subtypes; conditions: clinically relevant concentrations; cited from earlier work
[3] = test system: adult males diagnosed with FXS; conditions: 3 adult males, cited from earlier work
[4] = test system: alcohol intake; conditions: mouse, in vivo; cited from earlier work
[5] = test system: NMDA glutamate receptor; conditions: animal studies; cited from earlier work
[6] = safety measures and adverse effects in the FXS trial; format: in vivo, human
Excerpt: Safety assessment and monitoring began at screen when all subjects underwent a medical history, physical examination, and full psychiatric interview. A physical examination was also completed at end point. Vital signs, including height and weight, were obtained at each study visit. At screen, genetic testing for FXS was obtained if record of molecular testing utilizing Southern Blot and PCR was not available. At screen, week 6, and endpoint, laboratory tests of blood and urine, including CBC with differential and platelets, electrolyte panel, liver associated enzymes, lipid panel, and urine pregnancy test (in females) were obtained. An electrocardiogram was also obtained at screen and endpoint.
The pilot study ran for 10 weeks. Safety lab screens were carried out at weeks 6 and 10. Physiologic parameters measured during the safety screens were as follows: vital signs, LFTs, electrolyte panels, CBC with diff/plts, lipid panel, glucose, urinalysis and ECG.
In-person clinical visits were scheduled for every two weeks. Telephonic evaluations were carried out at weeks 1, 3, and 5. Each subject was evaluated for side effects at every interaction with the practitioner.

[7] = FXS, n=12, 10 weeks, listed as acamprosate
[8] = FXS, mean change from baseline to endpoint divided by SD at baseline

## CC(=O)NCCCS(=O)(=O)O [Acamprosate, 3-Acetamidopropane-1-sulfonic acid]
[1]; 12 youth with FXS, 10 weeks, mean final dose 1054 mg/day
  Treatment responders (CGI-I score of 1 very much improved or 2 much improved): 75%
[1]; FXS, 10 weeks
  Other subscales of the ABC and the CY-BOCS-PDD: did not change significantly during treatment
  SRS Social Awareness and Autistic Mannerisms subscales: Improvement was not noted
  decline of mean ABC-H score, baseline to endpoint: 35%
  decline of mean ABC-SA score, baseline to endpoint: 51%
  decline of mean ABC-SW score, baseline to endpoint: 53%
  decline of mean ADHD-RS score, baseline to endpoint: 29%
  decline of mean total SRS raw score, baseline to endpoint: 16%
  improvement of mean VABS Communication Domain standard score: 5%
  improvement of mean VABS Expressive Communication score: 13%
  other domains of the VABS: No other changes with treatment were noted
[1]; FXS, 10 weeks, baseline 85.2 ± 32.0, p=0.53
  Peabody Picture Vocabulary Test (PPVT), End point (mean ± SD): did not significantly change with treatment
[1]; FXS, 10 weeks, p=0.003
  decline of SRS Social Motivation subscale: 28%
[1]; FXS, 10 weeks, p=0.01
  decline of SRS Social Cognition subscale: 19%
  decline of SRS Social Communication subscale: 14%
[1]; FXS, Week 10, scale 1-7
  mean CGI-I at endpoint: 1.92 and 1.9
[1]; FXS, n=12, 10 weeks, p=0.01
  Aberrant Behavior Checklist-Social Avoidance (ABC-SA), End point (mean ± SD): 1.6 ± 2.7
[1]; FXS, n=12, 10 weeks, p=0.01, listed as acamprosate
  Aberrant Behavior Checklist-Social Avoidance (ABC-SA), End point (mean ± SD): 1.6
[1]; FXS, n=12, 10 weeks
  Clinical Global Impressions-Severity (CGI-S), End point (mean ± SD): 3.33 ± 0.5 and 3.33 ± 0.49
  Aberrant Behavior Checklist-Social Withdrawal (ABC-SW), End point (mean ± SD): 4.1 ± 6.5
  Aberrant Behavior Checklist-Hyperactivity (ABC-H), End point (mean ± SD): 11.0 ± 8.6
  ADHD Rating Scale 4th Edition (ADHD-RS), End point (mean ± SD): 16.7 ± 8
  Vineland Adaptive Behavior Scale (VABS) Communication Domain, End point (mean ± SD): 66.6 ± 11.2
  Social Responsiveness Scale total score (SRS), End point (mean ± SD): 76.4 ± 26.8 and 76.42 ± 26.8
[1]; [7]
  Clinical Global Impressions-Severity (CGI-S), End point (mean ± SD): 3.33
  Aberrant Behavior Checklist-Social Withdrawal (ABC-SW), End point (mean ± SD): 4.1
  Aberrant Behavior Checklist-Hyperactivity (ABC-H), End point (mean ± SD): 11.0
  ADHD Rating Scale 4th Edition (ADHD-RS), End point (mean ± SD): 16.7
  Vineland Adaptive Behavior Scale (VABS) Communication Domain, End point (mean ± SD): 66.6
  Social Responsiveness Scale total score (SRS), End point (mean ± SD): 76.4
[1]; FXS, n=12, 10 weeks, baseline 5.2 ± 3.5, p=0.61
  Aberrant Behavior Checklist-Inappropriate Speech (ABC-IS), End point (mean ± SD): 4.8 ± 3.4
[1]; FXS, n=12, 10 weeks, baseline 9.9 ± 7.8, p=0.11
  Aberrant Behavior Checklist-Irritability (ABC-I), End point (mean ± SD): 7.0 ± 8.9
[1]; FXS, n=12, 10 weeks, baseline 11.1 ± 2.6, p=0.15
  Children's Yale-Brown Obsessive Compulsive Scale Modified for PDD (CY-BOCS-PDD), End point (mean ± SD): 9.8 ± 4.1
[1]; FXS, n=12, 10 weeks, p=0.003
  VABS Expressive Communication Subdomain, End point (mean ± SD): 78.9 ± 21.2
[1]; FXS, n=12, 10 weeks, p=0.003, listed as acamprosate
  VABS Expressive Communication Subdomain, End point (mean ± SD): 78.9
[1]; [8]
  Effect Size, ABC-H: 0.64
  Effect Size, ABC-SA: 0.64
  Effect Size, ABC-SW: 0.81
  Effect Size, ADHD-RS: 0.65
  Effect Size, CGI-S: 2.0
  Effect Size, SRS total score: 0.54
  Effect Size, VABS Communication Domain: 0.32
  Effect Size, VABS Expressive Communication Subdomain: 0.4
[1]; FXS, mean change from baseline to endpoint divided by SD at baseline, listed as acamprosate
  Effect Size, VABS Communication Domain: 0.3
[1]; youth with FXS, pre-specified indicators of clinical response
  youth judged responders to acamprosate (of those treated): 9 of 12
[2]
  direct binding to glutamate or GABA receptors subtypes: no direct binding
[3]; mean dose 1,221 mg/day, mean duration 21.3 weeks
  clinical response measured by the CGI-I: all 3 subjects showed significant positive clinical response
[3]
  subjects with non-treatment limiting gastrointestinal distress (emesis and/or nausea): Two
[4]
  alcohol intake: reduced alcohol intake
[5]
  action at the NMDA glutamate receptor: bind and act as an antagonist at the NMDA glutamate receptor
[6]; 10 weeks
  changes in lipids, electrolytes, liver function tests, or blood counts: no clinically significant or mean changes
  changes in weight, pulse, or blood pressure: No clinically significant changes
[6]; 12 subjects
  Increased body rocking (mild), Number of Patients: 1
  subjects who experienced a mild adverse event: 75%
[6]; 12 subjects, 10 weeks
  tolerability: well tolerated overall, with no severe or serious adverse effects
[6]; screen vs endpoint
  changes on ECG including QTc interval: No clinically significant changes were noted on ECG
